Data as given in patent publication US20250311727A1, “SUBSTITUTED 2-AMINOAZINES AND SALTS THEREOF, AND USE THEREOF AS HERBICIDAL ACTIVE SUBSTANCES” (BAYER AKTIENGESELLSCHAFT, priority 2022, published 2025).

Assays:
Assay type in all cases: in vivo
[1] = test system: Amaranthus retroflexus; experiment: Post-emergence herbicidal efficacy at 320 g/ha, AMARE; conditions: rated visually after about 3 weeks vs untreated controls, 100% = plants have died
Source text: (§1) Unwanted plants/weeds: • ABUTH: Abutilon theophrasti • ALOMY: Alopecurus myosuroides • AMARE: Amaranthus retroflexus • DIGSA: Digitaria sanguinalis • ECHCG: Echinochloa crus-galli • KCHSC: Kochia scoparia • LOLRI: Lolium rigidum • MATIN: Matricaria inodora • POAAN: Poa annua • POLCO: Polygonum convolvulus • SETVI: Setaria viridis • STEME: Stellaria media • VERPE: Veronica persica • VIOTR: Viola tricolor A. Post-Emergence Herbicidal Efficacy at 320 g/ha
(§2) Seeds of mono- and dicotyledonous weed plants were placed in plastic pots in sandy loam soil (doubly sown with in each case one species of mono- or dicotyledonous weed plants per pot), covered with soil and cultivated in a greenhouse under controlled growth conditions. 2 to 3 weeks after sowing, the test plants were treated at the one-leaf stage. The compounds of the invention, formulated in the form of wettable powders (WP) or as emulsion concentrates (EC), were applied to the green parts of the plants as aqueous suspension or emulsion with addition of 0.5% additive at a water application rate equivalent to 600 litres per hectare. After the test plants had been kept in the greenhouse under optimum growth conditions for about 3 weeks, the activity of the preparations was rated visually in comparison to untreated controls.
(§3) For example, 100% activity=the plants have died, 0% activity=like control plants.
(§4) Tables A1 to A10 below show the effects of selected compounds of the general formula (I) according to Table 1 on various harmful plants and at an application rate corresponding to 320 g/ha, which were obtained by the trial procedure specified above.

[2] = test system: Setaria viridis; experiment: Pre-emergence herbicide efficacy at 320 g/ha, SETVI; conditions: scored visually after about 3 weeks vs untreated controls, 100% = plants have died
Source text: as §1
(§5) Seeds of mono- and dicotyledonous weed plants were placed in plastic pots in sandy loam soil (doubly sown with one species each of mono- or dicotyledonous weed plants per pot) and covered with soil. The compounds of the invention, formulated in the form of wettable powders (WP) or as emulsion concentrates (EC), were then applied to the surface of the covering soil as aqueous suspension or emulsion with addition of 0.5% additive at a water application rate of 600 litres per hectare (converted). After the treatment, the pots were placed in a greenhouse and kept under good growth conditions for the test plants. After about 3 weeks, the efficacy of the preparations was scored visually in comparison with untreated controls as percentages.
as §3
(§6) Tables C1 to C12 below show the effects of selected compounds of the general formula (I) according to Table 1 on various harmful plants and at an application rate corresponding to 320 g/ha, which were obtained by the trial procedure specified above.

[3] = test system: Amaranthus retroflexus; experiment: Pre-emergence herbicide efficacy at 320 g/ha, AMARE; conditions: scored visually after about 3 weeks vs untreated controls, 100% = plants have died
Source text: as §1, §5, §3, §6

[4] = test system: Abutilon theophrasti; experiment: Post-emergence herbicidal efficacy at 320 g/ha, ABUTH; conditions: rated visually after about 3 weeks vs untreated controls, 100% = plants have died
Source text: as §1, §2, §3, §4

[5] = test system: Veronica persica; experiment: Post-emergence herbicidal efficacy at 320 g/ha, VERPE; conditions: rated visually after about 3 weeks vs untreated controls, 100% = plants have died
Source text: as §1, §2, §3, §4

[6] = test system: Kochia scoparia; experiment: Post-emergence herbicidal efficacy at 320 g/ha, KCHSC; conditions: rated visually after about 3 weeks vs untreated controls, 100% = plants have died
Source text: as §1, §2, §3, §4

[7] = test system: Stellaria media; experiment: Post-emergence herbicidal efficacy at 320 g/ha, STEME; conditions: rated visually after about 3 weeks vs untreated controls, 100% = plants have died
Source text: as §1, §2, §3, §4

[8] = test system: Poa annua; experiment: Pre-emergence herbicide efficacy at 320 g/ha, POAAN; conditions: scored visually after about 3 weeks vs untreated controls, 100% = plants have died
Source text: as §1, §5, §3, §6

[9] = test system: Kochia scoparia; experiment: Pre-emergence herbicide efficacy at 320 g/ha, KCHSC; conditions: scored visually after about 3 weeks vs untreated controls, 100% = plants have died
Source text: as §1, §5, §3, §6

[10] = test system: Stellaria media; experiment: Pre-emergence herbicide efficacy at 320 g/ha, STEME; conditions: scored visually after about 3 weeks vs untreated controls, 100% = plants have died
Source text: as §1, §5, §3, §6

[11] = test system: Digitaria sanguinalis; experiment: Pre-emergence herbicide efficacy at 320 g/ha, DIGSA; conditions: scored visually after about 3 weeks vs untreated controls, 100% = plants have died
Source text: as §1, §5, §3, §6

[12] = test system: Abutilon theophrasti; experiment: Pre-emergence herbicide efficacy at 320 g/ha, ABUTH; conditions: scored visually after about 3 weeks vs untreated controls, 100% = plants have died
Source text: as §1, §5, §3, §6

[13] = test system: Veronica persica; experiment: Pre-emergence herbicide efficacy at 320 g/ha, VERPE; conditions: scored visually after about 3 weeks vs untreated controls, 100% = plants have died
Source text: as §1, §5, §3, §6

[14] = test system: Amaranthus retroflexus; experiment: Post-emergence herbicidal efficacy at 80 g/ha, AMARE; conditions: rated visually after about 3 weeks vs untreated controls, 100% = plants have died
Source text: as §1
(§7) Seeds of monocotyledonous and dicotyledonous weeds and crop plants were placed in sandy loam in plastic or organic planting pots, covered with soil and cultivated in a greenhouse under controlled growth conditions. 2 to 3 weeks after sowing, the test plants were treated at the one-leaf stage. The compounds of the invention, formulated in the form of wettable powders (WP) or as emulsion concentrates (EC), were then sprayed onto the green parts of the plants as aqueous suspension or emulsion with addition of 0.5% additive at a water application rate of 600 l/ha (converted). After the test plants had been kept in the greenhouse under optimum growth conditions for about 3 weeks, the activity of the preparations was rated visually in comparison to untreated controls. For example, 100% activity=the plants have died, 0% activity=like control plants.
(§8) Tables B1 to B11 below show the effects of selected compounds of the general formula (I) according to Table 1 on various harmful plants and an application rate corresponding to 80 g/ha, which were obtained by the experimental procedure mentioned above.

[15] = test system: Echinochloa crus-galli; experiment: Post-emergence herbicidal efficacy at 320 g/ha, ECHCG; conditions: rated visually after about 3 weeks vs untreated controls, 100% = plants have died
Source text: as §1, §2, §3, §4

[16] = test system: Echinochloa crus-galli; experiment: Pre-emergence herbicide efficacy at 320 g/ha, ECHCG; conditions: scored visually after about 3 weeks vs untreated controls, 100% = plants have died
Source text: as §1, §5, §3, §6

[17] = test system: Veronica persica; experiment: Post-emergence herbicidal efficacy at 80 g/ha, VERPE; conditions: rated visually after about 3 weeks vs untreated controls, 100% = plants have died
Source text: as §1, §7, §8

[18] = test system: Kochia scoparia; experiment: Post-emergence herbicidal efficacy at 80 g/ha, KCHSC; conditions: rated visually after about 3 weeks vs untreated controls, 100% = plants have died
Source text: as §1, §7, §8

| Compound | Post-emergence efficacy at 320 g/ha against AMARE in % [1] | Pre-emergence efficacy at 320 g/ha against SETVI in % [2] | Pre-emergence efficacy at 320 g/ha against AMARE in % [3] | Post-emergence efficacy at 320 g/ha against ABUTH in % [4] | Post-emergence efficacy at 320 g/ha against VERPE in % [5] | Post-emergence efficacy at 320 g/ha against KCHSC in % [6] | Post-emergence efficacy at 320 g/ha against STEME in % [7] | Pre-emergence efficacy at 320 g/ha against STEME in % [10] | Pre-emergence efficacy at 320 g/ha against DIGSA in % [11] | also measured |
| --- | --- | --- | --- | --- | --- | --- | --- | --- | --- | --- |
| FC(F)(F)CCCc1ccccc1Nc1ncc(Cl)cn1 [Example 1-1] | 90% | 90% | 90% | 90% | 90% |  |  |  |  |  |
| Fc1cnc(Nc2ccccc2SCCCC(F)(F)F)nc1 [Example 1-7] | 100% |  | 90% | 90% | 100% | 90% | 90% |  |  |  |
| Fc1cccc(Nc2ncccn2)c1-c1cc(C(F)F)no1 [Example 1-35] | 100% | 90% | 100% | 100% | 100% | 100% | 100% | 100% | 90% | Pre-emergence efficacy at 320 g/ha against POAAN in % [8]: 100%; Pre-emergence efficacy at 320 g/ha against KCHSC in % [9]: 100%; Pre-emergence efficacy at 320 g/ha against ABUTH in % [12]: 100%; Pre-emergence efficacy at 320 g/ha against VERPE in % [13]: 90% |
| COc1cnc(Nc2cccc(F)c2-c2cc(C(F)F)no2)nc1 [Example 1-37] | 90% | 100% | 100% | 100% | 90% | 90% |  | 100% | 100% | Pre-emergence efficacy at 320 g/ha against POAAN in % [8]: 100%; Pre-emergence efficacy at 320 g/ha against KCHSC in % [9]: 90%; Pre-emergence efficacy at 320 g/ha against ABUTH in % [12]: 90% |
| N#Cc1c(Cl)ccc(Nc2ncc(Cl)cn2)c1-n1cc(C(F)(F)F)cn1 [Example 1-43] | 100% |  |  |  |  | 100% |  |  |  | Post-emergence efficacy at 80 g/ha against AMARE in % [14]: 90% |
| Cc1ccc(Nc2ncc(Cl)cn2)c(-n2cc(C(F)(F)F)cn2)c1C#N [Example 1-45] |  |  |  |  |  |  |  | 100% |  |  |
| Cc1ccc(Nc2ncc(F)cn2)c(-n2cc(C(F)(F)F)cn2)c1C#N [Example 1-46] | 90% |  |  |  | 90% |  |  |  | 90% |  |
| Cc1cccc(Nc2ncc(Cl)cn2)c1-n1cc(C(F)(F)F)cn1 [Example 1-49] | 90% | 100% | 100% | 90% | 90% |  | 90% |  | 90% | Pre-emergence efficacy at 320 g/ha against POAAN in % [8]: 100%; Post-emergence efficacy at 320 g/ha against ECHCG in % [15]: 90%; Pre-emergence efficacy at 320 g/ha against VERPE in % [13]: 100% |
| Cc1cccc(Nc2ncc(F)cn2)c1-n1cc(C(F)(F)F)cn1 [Example 1-50] | 90% | 100% | 100% | 90% | 90% |  | 90% | 100% | 90% | Pre-emergence efficacy at 320 g/ha against POAAN in % [8]: 90%; Post-emergence efficacy at 320 g/ha against ECHCG in % [15]: 90%; Pre-emergence efficacy at 320 g/ha against ECHCG in % [16]: 100%; Pre-emergence efficacy at 320 g/ha against ABUTH in % [12]: 100%; Pre-emergence efficacy at 320 g/ha against VERPE in % [13]: 90% |
| N#Cc1cccc(Nc2ncc(Cl)cn2)c1-n1cccn1 [Example 1-64] | 100% | 100% | 100% |  | 90% | 100% | 90% |  | 90% | Pre-emergence efficacy at 320 g/ha against KCHSC in % [9]: 90% |
| COCc1cnn(-c2c(C#N)cccc2Nc2ncc(F)cn2)c1 [Example 1-69] | 100% | 90% | 100% | 90% | 100% |  | 100% | 100% |  |  |
| N#Cc1cccc(Nc2ncc(Cl)cn2)c1-n1cc(Cl)cn1 [Example 1-72] | 100% | 90% | 100% |  | 90% | 90% |  |  | 90% | Pre-emergence efficacy at 320 g/ha against KCHSC in % [9]: 90%; Pre-emergence efficacy at 320 g/ha against VERPE in % [13]: 90% |
| FC(F)c1cc(-c2c(Cl)cccc2Nc2ccc(Cl)cn2)on1 [Example 1-74] |  |  |  |  |  |  |  |  |  | Post-emergence efficacy at 80 g/ha against VERPE in % [17]: 80%; Post-emergence efficacy at 80 g/ha against AMARE in % [14]: 80% |
| Fc1cnc(Nc2ccccc2-n2cc(C(F)(F)F)cn2)nc1 [Example 1-77] |  |  |  |  |  |  |  |  |  | Post-emergence efficacy at 80 g/ha against VERPE in % [17]: 80% |
| Cc1cc(C)c(-c2cc(C(F)F)no2)c(Nc2ncc(Cl)cn2)n1 [Example 2-4] |  |  |  |  |  | 90% | 100% | 90% |  |  |
| O=C(CCCC(F)(F)F)c1cccnc1Nc1ncc(Cl)cn1 [Example 2-8] |  |  |  |  |  |  |  |  |  | Post-emergence efficacy at 80 g/ha against VERPE in % [17]: 90%; Post-emergence efficacy at 80 g/ha against AMARE in % [14]: 100%; Post-emergence efficacy at 80 g/ha against KCHSC in % [18]: 90% |
